Assay results taken from PubChem BioAssay AID652043 (Broad Institute, 2013).
Activity calls are given as the source filed them.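 How the source made its calls: active means fitted curve drops below -35% activity change at a concentration within twice the highest valid tested dose; inactive means activity opposite to the expected direction, or the rest.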

Legend:
[1] = TNFa-induced canonical NF-kB eGFP reporter inhibition, dose response, selectivity assay for LMP1 NF-kB inhibitor project, cell-based, flow cytometry, eGFP/dsRED, dry powder (AID 652043); details: HEK293 TNFa-induced NF-kB eGFP reporter, flow cytometry, 16 h
[2] = tested on: HEK293 TNFa-induced NF-kB eGFP reporter, flow cytometry, 16 h; assay: as above

SMILES	activity change, negative = inhibition ([1]; at 19.5 µM (top of the series))	AC35 [2]	further results
CN(C)c1ccc2c(c1)[C@@H]1C[C@@H](CC(=O)NCc3ccc(Oc4ccccc4)cc3)O[C@@H](CO)[C@@H]1O2	-5.55% (inactive)		
Cc1cc(C(=O)Nc2ccc3c(c2)C(=O)N(C)[C@@H]2CC[C@H](CC(=O)N[C@@H](C)c4ccccc4)O[C@H]2CO3)no1			activity change, negative = inhibition ([1]; at 21 µM (top of the series)): -5.47% (inactive)
CN(C)c1ccc2c(c1)[C@@H]1C[C@@H](CC(=O)NCC3CC3)O[C@@H](CO)[C@@H]1O2	-0.472% (inactive)		
COc1ccccc1[C@]1(C)ON(c2ccccc2C(F)(F)F)C1=O		10.6 µM	
CN(C)c1ccc2c(c1)[C@@H]1C[C@@H](CC(=O)NCc3ccc4c(c3)OCO4)O[C@@H](CO)[C@@H]1O2	-10.4% (inactive)		
CN(C)c1ccc2c(c1)[C@@H]1C[C@@H](CC(=O)NC3CCCCC3)O[C@@H](CO)[C@@H]1O2	-7.37% (inactive)		
O=C(C[C@@H]1C[C@H]2c3cc(NC(=O)NC4CCCC4)ccc3O[C@H]2[C@H](CO)O1)NCc1ccc(Oc2ccccc2)cc1		8.04 µM	
CN(C)c1ccc2c(c1)[C@@H]1C[C@@H](CC(=O)NCc3ccccn3)O[C@@H](CO)[C@@H]1O2	-11.4% (inactive)		
CCCNC(=O)C[C@H]1CC[C@@H]2[C@H](COc3ccc(NC(=O)c4cc(C)on4)cc3C(=O)N2C)O1	-2.12% (inactive)		
Cc1cc(C(=O)Nc2ccc3c(c2)C(=O)N(C)[C@@H]2CC[C@H](CC(=O)NC4CCCC4)O[C@H]2CO3)no1		10 µM	
CN(C)c1ccc2c(c1)[C@@H]1C[C@@H](CC(=O)N3CCc4ccccc4C3)O[C@@H](CO)[C@@H]1O2	-1.46% (inactive)		
Cc1cc(C(=O)Nc2ccc3c(c2)C(=O)N(C)[C@@H]2CC[C@H](CC(=O)NCc4ccc(-c5ccccc5)cc4)O[C@H]2CO3)no1			activity change, negative = inhibition ([1]; at 18 µM (top of the series)): -3.35% (inactive)
COCCNC(=O)C[C@H]1CC[C@@H]2[C@H](COc3ccc(NC(=O)c4cc(C)on4)cc3C(=O)N2C)O1	-8.48% (inactive)		
CN1C(=O)c2cc(NS(C)(=O)=O)ccc2OC[C@@H]2O[C@@H](CC(=O)NCc3ccc(-c4ccccc4)cc3)CC[C@H]21	-0.9% (inactive)		
O=C(C[C@@H]1C[C@H]2c3cc(NS(=O)(=O)c4ccc(F)cc4)ccc3O[C@H]2[C@H](CO)O1)NCc1ccc(Oc2ccccc2)cc1	-4.18% (inactive)		
CN(C)c1ccc2c(c1)[C@@H]1C[C@@H](CC(=O)NCCc3ccccc3)O[C@@H](CO)[C@@H]1O2	-3.65% (inactive)		

SMILES	activity change, negative = inhibition ([1]; at 19.5 µM (top of the series))	AC35 [2]	further results
CN1C(=O)c2cc(NC(=O)Nc3ccccc3F)ccc2OC[C@@H]2O[C@@H](CC(=O)NCc3ccc(-c4ccccc4)cc3)CC[C@H]21		0.161 µM	
O=C(C[C@@H]1C[C@H]2c3cc(NC(=O)Nc4ccccc4F)ccc3O[C@H]2[C@H](CO)O1)NCc1ccc(Oc2ccccc2)cc1		16.2 µM	
CNC(=O)C[C@H]1CC[C@@H]2[C@H](COc3ccc(NC(=O)c4cc(C)on4)cc3C(=O)N2C)O1	-1.72% (inactive)		
Cc1cc(C(=O)Nc2ccc3c(c2)C(=O)N(C)[C@@H]2CC[C@H](CC(=O)N[C@H](C)c4ccccc4)O[C@H]2CO3)no1		18.1 µM	
CS(=O)(=O)Nc1ccc2c(c1)[C@@H]1C[C@@H](CC(=O)NCc3ccc(Oc4ccccc4)cc3)O[C@@H](CO)[C@@H]1O2		0.623 µM	
O=C(C[C@@H]1C[C@H]2c3cc(NC(=O)C4CCOCC4)ccc3O[C@H]2[C@H](CO)O1)NCc1ccc(Oc2ccccc2)cc1		16.4 µM	
Nc1ccn([C@@H]2O[C@H](CO)[C@@H](O)C2O)c(=O)n1 (some centres not stated)		7.24 µM	
COc1ccccc1CNC(=O)C[C@@H]1C[C@H]2c3cc(N(C)C)ccc3O[C@H]2[C@H](CO)O1	-11.3% (inactive)		
CCNC(=O)C[C@H]1CC[C@@H]2[C@H](COc3ccc(NC(=O)c4cc(C)on4)cc3C(=O)N2C)O1	-0.229% (inactive)		
CN(C)c1ccc2c(c1)[C@@H]1C[C@@H](CC(=O)NCc3ccncc3)O[C@@H](CO)[C@@H]1O2	0.09% (inactive)		
O=C(Nc1ccc(C(F)(F)F)cc1)Nc1ccc2c(c1)[C@H]1C[C@@H](CC(=O)N3CCc4ccccc4C3)O[C@@H](CO)[C@H]1O2		15.8 µM	
COCCNC(=O)C[C@@H]1C[C@H]2c3cc(N(C)C)ccc3O[C@H]2[C@H](CO)O1	-5.65% (inactive)		
CN(C)c1ccc2c(c1)[C@@H]1C[C@@H](CC(=O)NCc3cccc(F)c3)O[C@@H](CO)[C@@H]1O2	-9.54% (inactive)		
CN(C)c1ccc2c(c1)[C@@H]1C[C@@H](CC(=O)NCc3cc(F)ccc3F)O[C@@H](CO)[C@@H]1O2		1.41 µM	
CN(C)c1ccc2c(c1)[C@@H]1C[C@@H](CC(=O)N3CCOCC3)O[C@@H](CO)[C@@H]1O2		1.95 µM	
Cc1cc(C(=O)Nc2ccc3c(c2)C(=O)N(C)[C@@H]2CC[C@H](CC(=O)NCc4ccc(-c5ccccc5)cc4)O[C@@H]2CO3)no1			activity change, negative = inhibition ([1]; at 21 µM (top of the series)): -0.92% (inactive)
